# Experimental data reported in article PMC5383040, “Inhibition of prenylated KRAS in a lipid environment” (PLoS ONE, 2017).
# Read-outs that look alike come from different tables or passages of the source.
# Experiments:
# [1] = test system: SW1990 cells; assay: Proliferation assay (CellTiter-Glo); assay type: cell-based; details: Homo sapiens, 120 h, 5 days, read-out: Growth inhibition EC50
# Experimental: Cells were seeded in 384-well plates and incubated with a 1:3 serial dilution of compound starting from 30 μM at 37°C with 5% CO2 for 5 days. Cell viability was measured using the CellTiter-Glo® Luminescent Cell Viability Assay kit (Promega) and read on an Envision (Perkin Elmer) plate reader. Percent growth inhibition was calculated by normalizing treatment to DMSO control. […] For every compound, each concentration was run in triplicate and all points were used for fitting a single curve.
# [2] = test system: SW1990 cells (KRAS^G12D); assay: Western blot analysis of pAKT and pERK in SW1990; assay type: cell-based, human; details: 3hrs treatment, dose-response
# Experimental: (§1) Cells were seeded in 6-well plates and treated with compounds or DMSO at the indicated concentrations for 3hrs. Total cell lysates were prepared in either M-PER (Pierce) or RIPA lysis buffer (50 mM Tris-HCl, pH 8.0, 150 mM NaCl, 0.5% NP-40, 0.5% sodium deoxycholate) supplemented with 1x protease inhibitor cocktail (Sigma) and 1x phosphatase inhibitor cocktails (Sigma). Lysates were normalized for protein concentration, resolved by SDS-PAGE, transferred onto nitrocellulose membranes and probed with the indicated antibodies.
# [3] = target: T1, full length BRAF^V600E (Homo sapiens, UniProt P15056, V600E); assay: BRAF^V600E counter-screen (coupled assay lacking KRAS); assay type: biochemical
# T1 construct: made in house; host or cells: insect cells (Sf9, Sf21 or Tn5), baculovirus pBlueBac4.5
# Experimental: An assay consisting of full length BRAF^V600E was used to flag inhibitors acting directly on BRAF, taking advantage of the constitutive activity of the BRAF mutant. […] The counter assay buffer, other components and order of addition matched the RAS-dependent assay except for the presence of KRAS. This assay was reproducible from run to run. […] After establishing reproducibility with this compound, all other compounds were measured with N≥2.
# [4] = target: T2, GTPγS-loaded, prenylated KRAS^G12V (Homo sapiens, UniProt P01116, G12V); assay: Coupled KRAS-BRAF-MEK assay (BRAF activation by KRAS, AlphaScreen pMEK readout); assay type: biochemical
# T2 construct: made in house; host or cells: insect cells (Sf9, Sf21 or Tn5), baculovirus
# [5] = target: T3, non-prenylated GMPPNP-loaded KRAS^G12V (Homo sapiens, UniProt P01116, G12V); assay: 31P-NMR conformational state of KRAS; details: KRAS^G12V 5 mg/ml; 1 mM compound 2 or 0.5 mM CRAF-RBD
# T3 construct: HSQC experiments were run with ^15N-labeled and GDP-loaded K-RAS^G12V (1–169)
# Experimental: (§2) The buffer contained 20mM Tris HCl, pH8.0, 50mM NaCl, 1mM MgCl2, 2mM DTT. […] 500 fragments from a fragment library [53] were screened by T1ρ ligand observation experiments, followed by protein-observed HSQC experiments. ^31P NMR spectra were acquired at 278°K on a Bruker AV400 spectrometer operating at 161.6 MHz ^31P frequency, equipped with a BBO probe.
# [6] = target: T4, non-prenylated GDP-KRAS^G12V (Homo sapiens, UniProt P01116, G12V); assay: HSQC NMR binding / titration; details: non-processed GDP-loaded KRAS^G12V (1–169) in aqueous buffer, no PS; estimated from titration
# T4 construct: HSQC experiments were run with ^15N-labeled and GDP-loaded K-RAS^G12V (1–169)
# Experimental: as §2
# [7] = test system: A375 cells (BRAF^V600E); assay: Western blot analysis of pAKT and pERK in A375; assay type: cell-based; details: 3hrs treatment
# Experimental: as §1
# [8] = target: T5, prenylated KRAS^G12V loaded with GTPγS (Homo sapiens, UniProt P01116, G12V); assay: Biolayer interferometry (BLI) binding to full-length prenylated KRAS in PS; details: for binding in BLI studies: at 10 μM, full-length prenylated KRAS in PS
# T5 construct: Avi-tag-(Gly)8 –KRAS^G12V (2–188) was cloned into the pFastBac1 vector; made in house; host or cells: Tn5 insect cells, co-infected with BirA virus
# Experimental: Determination of Kds was performed on the Octet RED platform, according to the manufacturer's recommendations in their application note on small molecule analysis. The prenylated KRAS peptide containing the farnesyl group attached to the terminal cysteine (biotin-[sequence](farnesyl)-OCH3) was obtained from AnaSpec (Fremont, California). […] After incubation for 1h at RT, the protein was loaded into a 96-well plate (Greiner 655209), and loaded a BLI response of 3-4nm. […] A reference sensor was run to remove systematic drift, and a second set of SuperStreptavidin biosensors blocked with biocytin was examined to remove systematic optical interferences, and to check for non-specific binding of compounds to the biosensor. Kds were determined using the ForteBio analysis software tool, which determines Kd from the steady-state plot, or from the determination of the kinetic constants kon and koff.
# [9] = target: T6, full-length KRAS (Homo sapiens, UniProt P01116, G12V); assay: BLI control with full-length KRAS in the absence of PS; assay type: binding
# T6 construct: Avi-tag-(Gly)8 –KRAS^G12V (2–188) was cloned into the pFastBac1 vector; made in house; host or cells: Tn5 insect cells, co-infected with BirA virus
# Experimental: Determination of Kds was performed on the Octet RED platform, according to the manufacturer's recommendations in their application note on small molecule analysis. The prenylated KRAS peptide containing the farnesyl group attached to the terminal cysteine (biotin-[…](farnesyl)-OCH3) was obtained from AnaSpec (Fremont, California). Proteins were obtained as described above. […] The protein was attached to SuperStreptavidin biosensors (ForteBio 18–5057) via Avi-tagged-KRAS G12V:[…], followed by the KRAS protein to a final concentration of 40nM. After incubation for 1h at RT, the protein was loaded into a 96-well plate (Greiner 655209), and loaded a BLI response of 3-4nm. […] A reference sensor was run to remove systematic drift, and a second set of SuperStreptavidin biosensors blocked with biocytin was examined to remove systematic optical interferences, and to check for non-specific binding of compounds to the biosensor. Kds were determined using the ForteBio analysis software tool, which determines Kd from the steady-state plot, or from the determination of the kinetic constants kon and koff. […] After establishing reproducibility with compound 3, all other compounds were measured in singleton.
# [10] = target: T7, 18-residue KRAS C-terminal prenylated peptide (Homo sapiens, UniProt P01116); assay: BLI with KRAS C-terminal prenylated peptide in PS; assay type: binding
# T7 construct: (biotin-[…](farnesyl)-OCH3) was obtained from AnaSpec (Fremont, California); purchased AnaSpec (Fremont, California); host or cells: synthetic peptide
# Experimental: Determination of Kds was performed on the Octet RED platform, according to the manufacturer's recommendations in their application note on small molecule analysis. The prenylated KRAS peptide containing the farnesyl group attached to the terminal cysteine (biotin-[…](farnesyl)-OCH3) was obtained from AnaSpec (Fremont, California). Proteins were obtained as described above. The assay buffer was 25mM Tris containing 190mM glycine, 5mM MgCl2, 0.01% Triton X-100, 1mM DTT and 1.3uM PS (liposome preparation as described above). The protein was attached to SuperStreptavidin biosensors (ForteBio 18–5057) via Avi-tagged-KRAS G12V:GTPγS with C-terminal prenylgroup by adding 2μL of the 5mg/mL solution of PS to 2mL of assay buffer, followed by the KRAS protein to a final concentration of 40nM. After incubation for 1h at RT, the protein was loaded into a 96-well plate (Greiner 655209), and loaded a BLI response of 3-4nm. […] Kds were determined using the ForteBio analysis software tool, which determines Kd from the steady-state plot, or from the determination of the kinetic constants kon and koff. […] After establishing reproducibility with compound 3, all other compounds were measured in singleton.
# [11] = target: T8, KRAS construct 1–180 (Homo sapiens, UniProt P01116, G12V); assay: BLI control with KRAS construct lacking the C-terminus; assay type: binding; details: KRAS 1–180 lacking C-terminus and prenyl group, 10 μM compound
# T8 construct: (His)6-TEV (N, cleaved yes); made in house; host or cells: E. coli BL21 (DE3), co-transformed with BirA
# [12] = set-up: method as in PMID 22431598; details: cited from earlier work
# [13] = target: truncated GDP-loaded KRAS; details: cited from earlier work
# [14] = BRAF^V600E, no KRAS, geomean, read-out: Counter-screen IC50
# [15] = GTPγS-loaded full-length prenylated KRAS^G12V in PS, geomean, read-out: Coupled assay IC50
# [16] = full-length prenylated GTPγS-loaded KRAS^G12V, PS liposomes, read-out: Kd BLI
# [17] = non-processed GDP-loaded KRAS in aqueous buffer, read-out: Kd HSQC
# T1 sequence (P15056 whole entry V600E): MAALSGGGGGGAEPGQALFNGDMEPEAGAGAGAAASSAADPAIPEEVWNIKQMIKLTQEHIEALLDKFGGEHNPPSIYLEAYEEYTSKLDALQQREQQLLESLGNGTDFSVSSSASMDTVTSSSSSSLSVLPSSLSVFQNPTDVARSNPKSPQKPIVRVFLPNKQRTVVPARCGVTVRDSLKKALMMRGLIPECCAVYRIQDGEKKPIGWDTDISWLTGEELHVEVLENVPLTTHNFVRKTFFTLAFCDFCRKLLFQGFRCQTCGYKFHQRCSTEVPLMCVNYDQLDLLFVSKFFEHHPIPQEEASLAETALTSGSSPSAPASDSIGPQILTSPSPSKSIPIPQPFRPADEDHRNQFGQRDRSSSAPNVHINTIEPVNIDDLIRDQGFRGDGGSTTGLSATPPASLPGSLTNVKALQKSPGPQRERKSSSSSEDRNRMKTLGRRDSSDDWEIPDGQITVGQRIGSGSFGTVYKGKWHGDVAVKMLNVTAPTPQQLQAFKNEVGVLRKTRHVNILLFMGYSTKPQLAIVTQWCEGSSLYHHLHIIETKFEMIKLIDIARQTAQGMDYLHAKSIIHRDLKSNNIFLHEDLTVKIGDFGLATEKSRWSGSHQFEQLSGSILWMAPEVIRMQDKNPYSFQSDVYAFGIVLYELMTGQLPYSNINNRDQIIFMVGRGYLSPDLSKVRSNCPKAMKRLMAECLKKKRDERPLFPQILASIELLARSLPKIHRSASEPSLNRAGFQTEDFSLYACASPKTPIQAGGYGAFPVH
smiles,measurement,setting,value
CC(C)NCC(O)COc1cccc2cc[nH]c12 (centres unmarked) [Compound 1],EC50,[1],> 30 µM
same,effect on pAKT and pERK (cellular activity),[2],inactive at the concentrations tested
same,IC50,[3]; [14],> 250 µM
same,IC50,[4]; [15],87 ± 22 µM
O=C(N[C@H]1CCN[C@H](Cc2ccc(Cl)cc2)C1)c1c[nH]c2ccc(Br)cc12 [Compound 2],EC50,[1],2.7 ± 1.4 µM
same,γ-phosphate population (conformational state) by 31P-NMR,[5],shift to a single inactive population
same,effect on pAKT and pERK (cellular activity),[2],dose-dependent decreases in phosphorylation of both of the pathway markers
same,Kd,[6],690 µM
same,activity in the counter-screen,[3],minimal activity was observed
same,IC50,[3]; [14],85 ± 47 µM
same,effect on pAKT levels,[7],unexpected pattern of modulation
same,binding in BLI studies,[8],minor non-specific binding
same,Kd,[8]; [16],0.8 µM
same,IC50,[4]; [15],0.8 ± 0.7 µM
Clc1ccc(C[C@@H]2C[C@@H](NCc3c[nH]c4ccccc34)CCN2)cc1 [Compound 3],EC50,[1],1.2 µM
same,binding in BLI,[9]; 10 μM compound,some binding was observed
same,binding in BLI,[9]; up to 3.3 μM compound,no binding was observed
same,binding to prenylated peptide in BLI,[10],binds to the prenylated peptide in a concentration-dependent manner
same,effect on pAKT and pERK (cellular activity),[2],dose-dependent decreases in phosphorylation of both of the pathway markers
same,activity in the counter-screen,[3],minimal activity was observed
same,IC50,[3]; [14],> 25 µM
same,effect on pAKT levels,[7],unexpected pattern of modulation
same,Kd,[8]; [16],2.6 ± 0.8 µM
same,binding in BLI,[11],minimal binding was observed
same,IC50,[4]; [15],1.2 µM
O=C(N[C@H]1CCN(Cc2ccc(O)nc2)C1)c1c[nH]c2ccc(Cl)cc12 [Compound 4],EC50,[1],> 30 µM
same,binding to prenylated peptide in BLI,[10],did not bind
same,effect on pAKT and pERK (cellular activity),[2],inactive at the concentrations tested
same,IC50,[3]; [14],115 µM
same,binding in BLI studies,[8],did not bind
same,Kd,[8]; [16],> 10 µM
same,activity in the coupled assay,[4],negligible biochemical activity
same,IC50,[4]; [15],49 µM
"Cc1[nH]c2cc(Cl)cc(Cl)c2c1CCN [Compound 5, reference compound]",EC50,[1],18 µM
same,potency in cell-based assays,[12],16 µM
same,effect on pAKT and pERK (cellular activity),[2],double-digit μM potency in cells
same,Kd,"[13]; absence of a lipid environment, read-out: published Kd to truncated GDP-loaded KRAS",1000 µM
same,Kd,[13]; [17],1100 µM
same,IC50,[3],29 µM
same,Kd,[8],34 µM
same,IC50,[4],7 µM
"O=C(Nc1ccc2nc(Cc3c[nH]c4ccccc34)[nH]c2c1)C1CCCN1 (centres unmarked) [Compound 6, reference compound]",EC50,[1],> 30 µM
same,effect on pAKT and pERK (cellular activity),[2],inactive in cells
same,Kd,[13]; [17],340 µM
same,activity in the counter-screen,[3],negligible activity
same,IC50,[3]; [14],134 µM
same,activity in the coupled assay,[4],negligible activity
